Among the data in PubChem BioAssay (NCI) are TGI and GI50 values, retold here.

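Compound exposure: 48 hours, 5 concentrations, 96-well plates. GI50: concentration for 50% inhibition of growth. Definition used: TGI = concentration required for complete inhibition of growth.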 Where only a bound is given, the exact number is not on record here.

Common to all, as to test: NCI tumour cell line growth inhibition, 48 h
Assay [1] has as its system SF-295 CNS.
The subject of assay [2] is NCI-H226 lung.
Assay [3] deals with SK-MEL-28 melanoma.
Assay [4] concerns MDA-MB-231 breast.
For assay [5], the system named is MALME-3M melanoma.
Assay [6] deals with SN12C renal.
Assay [7] relates to A549 NSCLC.
In assay [8] the test system is SK-MEL-5 melanoma.
Assay [9] deals with OVCAR-4 ovarian.
In assay [10] the test system is SR leukemia.

Regarding `COC1=CC(=O)C(C2(OC(C)C)OC(=O)C(Cl)=C2Cl)=CC1=O` (configuration not stated), the TGI in assay [1], in [2], in [3], in assay [4], in assay [5] and in [6] was greater than 100 µM in each case. The TGI in assay [7] and in assay [8] was greater than 100 µM each time.
Regarding `Cc1cc2c(cc1C)[n+](=O)c(C(=O)c1ccccc1)c(C(F)F)n2[O-]`, the GI50 in assay [1] was 7.27 µM; in assay [2], 25.5 µM; in assay [3] it was 17.8 µM; in assay [4], 30.4 µM; in [5], 23.2 µM; in assay [9], 14.2 µM. The GI50 in [10] was 4.39 µM; in assay [6] it was 25.7 µM; in assay [7] it was 4.9 µM; in [8], 9.3 µM. The TGI in [1] is 42.5 µM; in assay [2] it was 72.9 µM; in assay [3], greater than 100 µM; in [4], greater than 100 µM; in [5], 62.9 µM; in assay [9] it was greater than 100 µM. In addition, the TGI in assay [10] is 98.4 µM; in assay [6], greater than 100 µM; in [7] it was 27.4 µM; in assay [8] it was 25 µM.
For the compound `C=C1C[C@H](O)[C@H](Br)C(C)(C)[C@@]12CCC(C)=C(Cl)C2`, the GI50 was 0.105 µM in assay [1]; 0.458 µM in assay [3]; 0.345 µM in assay [4]; 0.31 µM in [5]; 0.155 µM in [9]; 0.237 µM in [10]. Moreover, the values for the GI50 in assay [6], in assay [7] and in [8] were 0.416 µM, 0.261 µM and 0.253 µM, respectively. For the same compound, the TGI in [1] worked out at 1.69 µM; in [3] it was 2.78 µM; in assay [4], 2.33 µM; in [5], 2.3 µM; in assay [9], 7.81 µM; in assay [10], 11.1 µM. For the same compound, the TGI was 6.61 µM in assay [6], 1.96 µM in [7] and 0.866 µM in assay [8].
In the case of `COc1ccc(Cn2c(Br)c3c(c2Br)-c2nc(N)sc2CC3)cc1`, the GI50 is 3.07 µM in [1]; 4.98 µM in assay [3]; 5.97 µM in assay [4]; 5.22 µM in assay [5]; 0.84 µM in [10]; 5.47 µM in assay [6]. Besides, the GI50 in [7] is 4.77 µM; in [8], 4.83 µM. Further, the TGI was 10.4 µM in assay [1]; 18.1 µM in [3]; 26.8 µM in assay [4]; 19.9 µM in assay [5]; greater than 100 µM in [10]; 21 µM in [6]. The TGI worked out at 77 µM in [7] and 18.7 µM in assay [8].
For the compound `C=C(C)C12OC1[C@@]1(C)C(=CC2=O)CCC(O)[C@@H]1C` (some centres not stated), the TGI in assay [1] is greater than 100 µM; in assay [3], greater than 100 µM; in assay [4] it was 7.11 µM; in [5] it was 25.1 µM; in assay [9] it was greater than 100 µM; in assay [10], 11.3 µM. Moreover, the TGI in [6] amounted to 11.5 µM; in assay [7] it was 20.3 µM; in assay [8] it was 36.7 µM.
Turning to `CC(C)(C)[Si](C)(C)OC1[C@@H](O[Si](C)(C)C(C)(C)C)[C@@H](CNC(=O)NC(=O)C(F)(F)F)O[C@H]1n1cnc2c(NC(=O)Nc3ccccc3)ncnc21` (some centres not stated), the GI50 is 4.61 µM in assay [2]; 8.04 µM in assay [3]; 6.16 µM in assay [4]; 10.4 µM in assay [5]; 3.98 µM in assay [9]; 1.52 µM in assay [10]. Also, the values for the GI50 in [6], in assay [7] and in [8] were 1.96 µM, 4.5 µM and 2.72 µM, respectively. Further, the TGI came out at 11.8 µM in [2]; 15.2 µM in assay [3]; 14.2 µM in assay [4]; 19.5 µM in [5]; 10.9 µM in [9]; 5.25 µM in assay [10]. Moreover, the TGI in assay [6] was determined as 8.22 µM; in [7], 12.4 µM; in assay [8], 9.18 µM.
As for `COc1cc2c(cc1OC)C(Cl)C(c1ccc(F)cc1)=C2Cl` (configuration not stated), the TGI stood at 29 µM in assay [1]; 74 µM in assay [2]; 33.3 µM in assay [3]; 27 µM in assay [4]; 28.7 µM in assay [5]; 14.3 µM in assay [10]. Also, the results for the TGI in assay [6], in assay [7] and in assay [8] were 27 µM, 32.8 µM and 27.4 µM, respectively.
Turning to `Cc1cc(Nc2ccc(C)c(Cl)c2)n2nc(C(F)(F)F)nc2n1`, the GI50 in assay [1] is 21.2 µM; in assay [2], 23.2 µM; in assay [3], 29.8 µM; in assay [4], 23.7 µM; in assay [5], 30.4 µM; in [9], 25.8 µM. The GI50 in [10] was 18.4 µM; in assay [6], 18.8 µM; in [8], 14.3 µM. Further, the TGI in assay [1] is 74 µM; in assay [2], greater than 100 µM; in assay [3], greater than 100 µM; in assay [4], greater than 100 µM; in assay [5] it was 97.9 µM; in [9] it was greater than 100 µM. Moreover, the TGI was 57 µM in [10], 52.9 µM in [6] and 27.9 µM in assay [8].
With `C[C@@H]1CC[C@H]2C(C)(C)[C@H]3C[C@@]12CC[C@@]3(C)O`, the TGI is greater than 100 µM in [1]; greater than 100 µM in assay [2]; greater than 100 µM in assay [3]; greater than 100 µM in [4]; greater than 100 µM in assay [9]; 48.6 µM in assay [10]. Further, the values for the TGI in [6], in assay [7] and in [8] were 60.5 µM, greater than 100 µM and greater than 100 µM, respectively.
In the case of `Cn1cc(-c2cc3c(N4CCN(c5ncc([C@@](C)(N)c6ccc(F)cc6)cn5)CC4)ncnn3c2)cn1`, the GI50 in [1] is 3.56 µM; in [4], 4.77 µM; in assay [5], 4.16 µM; in assay [9], 2.45 µM; in assay [6] it was 5.46 µM; in assay [7], 5.61 µM. Moreover, the TGI in assay [1], in [4], in assay [5], in [9], in [6] and in [7] was greater than 100 µM in each case.
